Like-named read-outs stand apart in the source and are kept apart here.
What was measured:
[1] = system: ventral prostate and levator ani of immature castrated male Sprague Dawley rats; assay: Ventral Prostate and Levator ani Weight in vivo Assay (agonist activity); set-up: key to % Prostate Stimulation / % levator ani Stimulation: level 1 agonist active if it produced greater than or equal to 30% stimulation of levator ani or ventral prostate at 30 mg/kg; level 2 agonist active if it produced greater than or equal to 5% but less than 30% stimulation of levator ani or ventral prostate at 30 mg/kg; listed herein as “inactive” as they did not meet the specified criteria defined above; details: once daily for five days, oral, vehicle = 0%, testosterone propionate = 100%, criteria at 30 mg/kg; for change in vivo at 30 mg/kg: Rattus norvegicus, 120 h
Description: Immature (approximately 50 g) castrated male Sprague Dawley rats (Charles River) were treated once daily for five days with test compound ([…], in 30% cyclodextrin or 0.5% methylcellulose vehicle), or with testosterone propionate (administered subcutaneously by injection at the nape of the neck at 5 mg/kg, in a volume of 0.1 mL in sesame oil), or with vehicle (1 mL of 30% cyclodextrin or 0.5% methylcellulose, given orally). On the sixth day, the rats were euthanized by asphyxiation in carbon dioxide. Ventral prostates and levator ani. muscle were removed and their wet weights determined.
Test compound activity was determined as the percent stimulation of tissue weight, with the vehicle-treated control group set to zero percent and the testosterone alone-treated control group set to 100%.

[2] = system: ventral prostate and seminal vesicle of immature castrated male Sprague Dawley rats; assay: Ventral Prostate and Seminal Vesicle Weight in vivo Assay (antagonist activity, with testosterone propionate); set-up: key to Inhibition of prostate (non-weight prostate weight, mg) / Inhibition of seminal vesicle (non-weight seminal vesicle weight, mg): level 1 agonist active if it produced greater than or equal to 30% stimulation of levator ani or ventral prostate at 30 mg/kg; level 2 agonist active if it produced greater than or equal to 5% but less than 30% stimulation of levator ani or ventral prostate at 30 mg/kg; listed herein as “inactive” as they did not meet the specified criteria defined above; details: test compound oral plus testosterone propionate 2 mg/kg s.c., five days, criteria at 30 mg/kg; for inhibition in vivo at 30 mg/kg: Rattus norvegicus, 120 h
Description: Immature (approximately 50 g) castrated male Sprague Dawley rats (Charles River) were treated once daily for five days with test compound ([…], in 30% cyclodextrin or 0.5% methylcellulose vehicle) and with testosterone propionate (given subcutaneously by injection at the nape of the neck at 2 mg/kg, in a volume of 0.1 mL in sesame oil). On the sixth day, the rats were euthanized by asphyxiation in carbon dioxide. Ventral prosatates and seminal vesicles were removed and their wet weights determined. Test compound activity was determined as the percent inhibition of testosterone-enhanced tissue weights, with a vehicle-treated control group set to zero percent and a testosterone alone-treated control group set to 100%.

[3] = levator ani wet weight, read-out: % levator ani Stimulation
[4] = ventral prostate wet weight, read-out: % Prostate Stimulation
[5] = seminal vesicle wet weight, read-out: Inhibition of seminal vesicle (non-weight seminal vesicle weight, mg)
[6] = ventral prostate wet weight, read-out: Inhibition of prostate (non-weight prostate weight, mg)
[7] = levator ani wet weight, 30 mg/kg
[8] = ventral prostate wet weight, 30 mg/kg

Compound	change in vivo at 30 mg/kg [1, 3]	change in vivo at 30 mg/kg [1, 4]	inhibition in vivo at 30 mg/kg [2, 5]	inhibition in vivo at 30 mg/kg [2, 6]	% levator ani Stimulation [1, 7]	% Prostate Stimulation [1, 8]	Inhibition of seminal vesicle (non-weight seminal vesicle weight, mg) ([2]; seminal vesicle wet weight)	Inhibition of prostate (non-weight prostate weight, mg) ([2]; ventral prostate wet weight)	% levator ani Stimulation ([1]; levator ani wet weight)	% Prostate Stimulation ([1]; ventral prostate wet weight)
CCc1c(/N=C2\N=C(N)N3N=C(C(F)(F)F)CC23C)ccc(C#N)c1C(F)(F)F (stereo not shown) [Compound 9, 4-(6-Amino-3a-methyl-2-trifluoromethyl-3,3a-dihydro-imidazo[1,5-b]pyrazol-4-ylideneamino)-3-ethyl-2-trifluoromethyl-benzonitrile]	5 to 30%	5 to 30%	≥ 30%	5 to 30%						
C[C@]12CC(C(F)(F)F)=NN1C(N)=NC2=Nc1ccc(C#N)c(C(F)(F)F)c1.O [Compound 17, 4-(6-Amino-3aR-methyl-2-trifluoromethyl-3,3a-dihydro-imidazo[1,5-b]pyrazol-4-ylideneamino)-2-trifluoromethyl-benzonitrile-Hydrates]					level 1 (level 1 agonist active if it produced greater than or equal to 30% stimulation of levator ani or ventral prostate at 30 mg/kg)	level 2 (level 2 agonist active if it produced greater than or equal to 5% but less than 30% stimulation of levator ani or ventral prostate at 30 mg/kg)	leve 1	inactive		
C[C@]12CC(C(F)(F)F)=NN1C(N)=N/C2=N\c1ccc(C#N)c(C(F)(F)F)c1 [Compound 2, 4-(6-Amino-3aR-methyl-2-trifluoromethyl-3,3a-dihydro-imidazo[1,5-b]pyrazol-4-ylideneamino)-2-trifluoromethyl-benzonitrile]	≥ 30%	≥ 30%		5 to 30%			inactive			
CC12CC(C(F)(F)F)=NN1C(N)=N/C2=N\c1ccc(Cl)c(Cl)c1 (stereo not shown) [Compound 4, 4-(3,4-Dichloro-phenylimino)-3a-methyl-2-trifluoromethyl-3a,4-dihydro-3H-imidazo[1,5-b]pyrazol-6-ylamine]			5 to 30%	5 to 30%					inactive	inactive
CC12CC=NN1C(N)=N/C2=N\c1ccc(C#N)c(C(F)(F)F)c1 (stereo not shown) [Compound 6, 4-(6-Amino-3a-methyl-3,3a-dihydro-imidazo[1,5-b]pyrazol-4-ylideneamino)-2-trifluoromethyl-benzonitrile]			5 to 30%					inactive	inactive	inactive
C[C@@]12CC(C(F)(F)F)=NN1C(N)=NC2=Nc1ccc(C#N)c(C(F)(F)F)c1.O [Compound 18, 4-(6-Amino-3aS-methyl-2-trifluoromethyl-3,3a-dihydro-imidazo[1,5-b]pyrazol-4-ylideneamino)-2-trifluoromethyl-benzonitrile-Hydrates]					level 2 (level 2 agonist active if it produced greater than or equal to 5% but less than 30% stimulation of levator ani or ventral prostate at 30 mg/kg)	inactive	inactive	inactive		
C[C@@]12CC(C(F)(F)F)=NN1C(N)=NC2=Nc1ccc(C#N)c(C(F)(F)F)c1.O [Compound 21, 4-(6-Amino-3aS-methyl-2-trifluoromethyl-3,3a-dihydro-imidazo[1,5-b]pyrazol-4-ylideneamino)-2-trifluoromethyl-benzonitrile-Hydrates]					level 1 (level 1 agonist active if it produced greater than or equal to 30% stimulation of levator ani or ventral prostate at 30 mg/kg)	level 1 (level 1 agonist active if it produced greater than or equal to 30% stimulation of levator ani or ventral prostate at 30 mg/kg)	level 1 (level 1 antagonist active if it produced greater than or equal to 30% inhibition of ventral prostate or seminal vesicle at 30 mg/kg)	level 1 (level 1 antagonist active if it produced greater than or equal to 30% inhibition of ventral prostate or seminal vesicle at 30 mg/kg)		

Reference: patent publication US7655683B2, “Imidazolopyrazole derivatives useful as selective androgen receptor modulators” (Janssen Pharmaceutica NV, priority 2006, dated 2010)
